Measured values as given in patent US8673938B2, “Chemical compounds” (priority 2006, dated 2014).

Target: human 11βHSD1 enzyme (Homo sapiens (Human), UniProt P28845)
Assay: biochemical
Conditions: read-out: % inhibition of human 11-βHSD
Protocol: The evaluation of compounds described herein was carried out using a baculovirus expressed N terminal 6-His tagged full length human 11βHSD1 enzyme(*1). […] Inhibitors of 11βHSD1 reduce the conversion of cortisone to cortisol, which is identified by an increase in signal, in the above assay.
Compounds to be tested were dissolved in dimethyl sulphoxide (DMSO) to 10 mM and diluted further in assay buffer containing 1% DMSO to 10 fold the final assay concentration. Diluted compounds were then plated into black 384 well plates (Matrix, Hudson N.H., USA).
The assay plates were incubated for 25 minutes at 37° C. after which time the reaction was stopped by the addition of 10 μl of 0.5 mM glycerrhetinic acid plus conjugated cortisol (XL665 or D2). 10 μl of anti-cortisol Cryptate was then added and the plates sealed and incubated for 6 hours at room temperature.

Chain of human 11βHSD1 enzyme (P28845 whole entry): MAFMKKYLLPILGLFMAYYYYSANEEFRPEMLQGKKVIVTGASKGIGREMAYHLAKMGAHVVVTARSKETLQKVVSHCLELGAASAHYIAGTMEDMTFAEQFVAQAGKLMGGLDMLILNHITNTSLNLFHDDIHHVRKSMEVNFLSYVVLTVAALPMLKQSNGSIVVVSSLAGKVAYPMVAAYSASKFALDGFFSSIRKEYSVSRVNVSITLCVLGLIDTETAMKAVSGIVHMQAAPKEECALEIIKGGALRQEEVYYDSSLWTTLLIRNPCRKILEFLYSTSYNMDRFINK

**Q.** Which inhibition at 30 µM does the source give for `CCCOc1nc(N2CCC[C@@H](CC(=O)O)C2)ccc1C(=O)N[C@H]1C2CC3CC1C[C@@](O)(C3)C2` [Example 109, 2-[(3S)-1-[5-[[(2r,5s)-5-hydroxy-2-adamantyl]carbamoyl]-6-propoxy-pyridin-2-yl]-3-piperidyl]acetic acid] here?
**A.** 88%

**Q.** How did the inhibition at 30 µM turn out when `CCCOc1nc(N2CCCC(C(C)(C)C(=O)O)C2)ccc1C(=O)N[C@H]1C2CC3CC1C[C@](O)(C3)C2` (stereo partly drawn) [Example 110, 2-[1-[5-[((2r,5s)-5-hydroxy-2-adamantyl)carbamoyl]-6-propoxy-pyridin-2-yl]-3-piperidyl]-2-methyl-propanoic acid] was run?
**A.** 95%

**Q.** For `CCCSc1nc(N2CCC[C@@H](CC(=O)O)C2)ccc1C(=O)N1CCC(c2cccnc2)C1` (stereo partly drawn) [Example 113, 2-[(3S)-1-[6-propylsulfanyl-5-(3-pyridin-3-ylpyrrolidine-1-carbonyl)pyridin-2-yl]-3-piperidyl]acetic acid], which inhibition at 30 µM is on record?
**A.** 90%

**Q.** For `CCCSc1nc(N2CCC[C@@H](CC(=O)O)C2)ccc1C(=O)N1CCC(c2ccccn2)C1` (stereo partly drawn) [Example 114, 2-[(3S)-1-[6-propylsulfanyl-5-(3-pyridin-2-ylpyrrolidine-1-carbonyl)pyridin-2-yl]-3-piperidyl]acetic acid], which inhibition at 30 µM is on record?
**A.** 101%

**Q.** Which inhibition at 30 µM does the source give for `CCCSc1nc(N2CCC[C@@H](CC(=O)O)C2)ccc1C(=O)N1CCCCC1` [Example 115, 2-[(3S)-1-[5-(piperidine-1-carbonyl)-6-propylsulfanyl-pyridin-2-yl]-3-piperidyl]acetic acid] here?
**A.** 93%

**Q.** Which inhibition at 30 µM does the source give for `CCCSc1nc(N2CCC[C@@H](CC(=O)O)C2)ccc1C(=O)N1CCC(c2cnccn2)C1` (stereo partly drawn) [Example 116, 2-[(3S)-1-[6-propylsulfanyl-5-(3-pyrazin-2-ylpyrrolidine-1-carbonyl)pyridin-2-yl]-3-piperidyl]acetic acid] here?
**A.** 89%

**Q.** For `CCCSc1nc(N2CCC[C@@H](CC(=O)O)C2)ccc1C(=O)N1CCCC(C(F)(F)F)C1` (stereo partly drawn) [Example 118, 2-[(3S)-1-[6-propylsulfanyl-5-[3-(trifluoromethyl)-piperidine-1-carbonyl]pyridin-2-yl]-3-piperidyl]acetic acid], which inhibition at 30 µM is on record?
**A.** 101%

**Q.** How did the inhibition at 30 µM turn out when `CCCSc1nc(N2CCC[C@@H](CC(=O)O)C2)ccc1C(=O)N1CCC(C(F)(F)F)CC1` [Example 119, 2-[(3S)-1-[6-propylsulfanyl-5-[4-(trilfuoromethyl)piperidine-1-carbonyl]pyridin-2-yl]-3-piperidyl]acetic acid] was run?
**A.** 99%

**Q.** With `CCCSc1nc(N2CCC[C@@H](CC(=O)O)C2)ccc1C(=O)N1CCC(C(N)=O)CC1` [Example 120, 2-[(3S)-1-[5-(4-carbamoylpiperidine-1-carbonyl)-6-propylsulfanyl-pyridin-2-yl]-3-piperidyl]acetic acid] as the compound, how does the inhibition at 30 µM read?
**A.** 104%

**Q.** `CCCSc1nc(N2CCC[C@@H](CC(=O)O)C2)ccc1C(=O)N(CC1CC1)C1CCCCC1` [Example 122, 2-[(3S)-1-[5-(cyclohexyl-(cyclopropylmethyl)carbamoyl)-6-propylsulfanyl-pyridin-2-yl]-3-piperidyl]acetic acid] was tested. Which inhibition at 30 µM did it give?
**A.** 88%

**Q.** Which inhibition at 30 µM does the source give for `CCCSc1nc(N2CCC[C@@H](CC(=O)O)C2)ccc1C(=O)N(CC)C1CCCCC1` [Example 123, 2-[(3S)-1-[5-(cyclohexyl-ethyl-carbamoyl)-6-propylsulfanyl-pyridin-2-yl]-3-piperidyl]acetic acid] here?
**A.** 94%

**Q.** `CCCSc1nc(N2CCC[C@@H](CC(=O)O)C2)ccc1C(=O)N(C(C)C)C1CCCCC1` [Example 124, 2-[(3S)-1-[5-(cyclohexyl-propan-2-yl-carbamoyl)-6-propylsulfanyl-pyridin-2-yl]-3-piperidyl]acetic acid] was tested. Which inhibition at 30 µM did it give?
**A.** 92%

**Q.** For `CCCSc1nc(N2CCC[C@@H](CC(=O)O)C2)ccc1C(=O)N[C@H]1CC[C@H](O)CC1` [Example 125, 2-[(3S)-1-[5-[(4-hydroxycyclohexyl)carbamoyl]-6-propylsulfanyl-pyridin-2-yl]-3-piperidyl]acetic acid], which inhibition at 30 µM is on record?
**A.** 102%

**Q.** For `CCCSc1nc(N2CCC[C@@H](CC(=O)O)C2)ccc1C(=O)N1CCC(c2ccccc2C(F)(F)F)C1` (stereo partly drawn) [Example 126, 2-[(3S)-1-[6-propylsulfanyl-5-[3-[2-(trifluoromethyl)phenyl]pyrrolidine-1-carbonyl]pyridin-2-yl]-3-piperidyl]acetic acid], which inhibition at 30 µM is on record?
**A.** 87%

**Q.** For `CCCSc1nc(N2CCC[C@@H](CC(=O)O)C2)ccc1C(=O)N[C@H]1C2CC3CC1C[C@@](S(C)(=O)=O)(C3)C2` [Example 126b, 2-[(3S)-1-[5-[((2r,5s)-5-methylsulfonyl-2-adamantyl)carbamoyl]-6-propylsulfanyl-pyridin-2-yl]-3-piperidyl]acetic acid], which inhibition at 30 µM is on record?
**A.** 99%

**Q.** How did the inhibition at 30 µM turn out when `O=C(O)C[C@@H]1CCCN(c2ccc(C(=O)N3CCC(c4cccnc4)C3)c(SC3CCCC3)n2)C1` (stereo partly drawn) [Example 127, 2-[(3S)-1-[6-cyclopentylsulfanyl-5-(3-pyridin-3-ylpyrrolidine-1-carbonyl)pyridin-2-yl]-3-piperidyl]acetic acid] was run?
**A.** 96%

**Q.** `CC(C)(O)C1CCCN(C(=O)c2ccc(N3CCC[C@@H](CC(=O)O)C3)nc2SC2CCCC2)C1` (stereo partly drawn) [Example 128, 2-[(3S)-1-[6-cyclopentylsulfanyl-5-[3-(2-hydroxypropan-2-yl)piperidine-1-carbonyl]pyridin-2-yl]-3-piperidyl]acetic acid] was tested. Which inhibition at 30 µM did it give?
**A.** 91%

**Q.** For `O=C(O)C[C@H]1CCCN(c2ccc(C(=O)NC3CCCCC3)c(SCCc3ccccc3)n2)C1` [Example 129, 2-[(3R)-1-[5-(cyclohexylcarbamoyl)-6-phenethylsulfanyl-pyridin-2-yl]-3-piperidyl]acetic acid], which inhibition at 30 µM is on record?
**A.** 82%

**Q.** For `O=C(O)C[C@@H]1CCCN(c2ccc(C(=O)NC3CCCCC3)c(SCCc3ccccc3)n2)C1` [Example 130, 2-[(3S)-1-[5-(cyclohexylcarbamoyl)-6-phenethylsulfanyl-pyridin-2-yl]-3-piperidyl]acetic acid], which inhibition at 30 µM is on record?
**A.** 91%

**Q.** For `CCCCc1nc(N2CC3C(C2)C3C(=O)O)ccc1C(=O)NC1C2CC3CC(C2)CC1C3` (stereo not drawn) [Example 163, 3-[5-(2-adamantylcarbamoyl)-6-butyl-pyridin-2-yl]-3-azabicyclo[3.1.0]hexane-6-carboxylic acid], which inhibition at 30 µM is on record?
**A.** 93%

**Q.** `CCCSc1nc(N2CCC[C@H](CC(=O)O)C2)ccc1C(=O)N(C)C1CCCCC1` [Example 168, 2-[(3R)-1-[5-(Cyclohexyl-methyl-carbamoyl)-6-propylsulfanyl-pyridin-2-yl]-3-piperidyl]acetic acid] was tested. Which inhibition at 30 µM did it give?
**A.** 108%

**Q.** `CCCSc1nc(N2CCC[C@@H](CC(=O)O)C2)ccc1C(=O)N(C)[C@H]1C2CC3CC1C[C@](OC)(C3)C2` [Example 170, [(3S)-1-[5-[((2r,5s)-5-Methoxyadamantan-2-yl)(methyl)carbamoyl]-6-(propylthio)pyridin-2-yl]piperidin-3-yl]acetic acid] was tested. Which inhibition at 30 µM did it give?
**A.** 92%

**Q.** Which inhibition at 30 µM does the source give for `CCCSc1nc(N2CCC[C@@H](CC(=O)O)C2)ccc1C(=O)N(C)[C@H]1C2CC3CC1C[C@](O)(C3)C2` [Example 171, [(3S)-1-{5-[((2r,5s)-5-Hydroxyadamantan-2-yl)(methyl)carbamoyl]-6-(propylthio)pyridin-2-yl}piperidin-3-yl]acetic acid] here?
**A.** 97%

**Q.** How did the inhibition at 30 µM turn out when `CCCSc1nc(N2CCC[C@@H](CC(=O)O)C2)ccc1C(=O)NC12CC3CC(CC(C3)C1)C2` [Example 172, {(3S)-1-[5-(Adamantan-1-ylcarbamoyl)-6-(Propylthio)pyridin-2-yl]piperidin-3-yl}acetic acid] was run?
**A.** 88%

**Q.** With `CCCSc1nc(N2CCC[C@@H](CC(=O)O)C2)ccc1C(=O)NC1CCOCC1` [Example 173] as the compound, how does the inhibition at 30 µM read?
**A.** 92%

**Q.** For `CCCSc1nc(N2CCC[C@@H](CC(=O)O)C2)ccc1C(=O)N(C)C1CCOCC1` [Example 174, [(3S)-1-{5-[Methyl(tetrahydro-2H-pyran-4-yl)carbamoyl]-6-(propylthio)pyridin-2-yl}piperidin-3-yl]acetic acid], which inhibition at 30 µM is on record?
**A.** 92%

**Q.** For `O=C(O)C[C@@H]1CCN(c2ccc(C(=O)N[C@H]3C4CC5CC3C[C@](OC(F)F)(C5)C4)c(SC3CCCCC3)n2)C1` [Example 175, 2-[(3S)-1-[6-Cyclohexylsulfanyl-5-[[(2r,5s)-5-(difluoromethoxy)-2-adamantyl]carbamoyl]pyridin-2-yl]pyrrolidin-3-yl]acetic acid], which inhibition at 30 µM is on record?
**A.** 91%

**Q.** With `O=C(O)C[C@@H]1CCCN(c2ccc(C(=O)N[C@H]3C4CC5CC3C[C@](OC(F)F)(C5)C4)c(SC3CCCCC3)n2)C1` [Example 176, 2-[(3S)-1-[6-Cyclohexylsulfanyl-5-[[(2r,5s)-5-(difluoromethoxy)-2-adamantyl]carbamoyl]pyridin-2-yl]-3-piperidyl]acetic acid] as the compound, how does the inhibition at 30 µM read?
**A.** 92%

**Q.** For `O=C(O)C[C@@H]1CCCN(c2ccc(C(=O)N[C@H]3C4CC5CC3C[C@](OC(F)F)(C5)C4)c(SC3CCCC3)n2)C1` [Example 178, 2-[(3S)-1-[6-Cyclopentylsulfanyl-5-[[(2r,5s)-5-(difluoromethoxy)-2-adamantyl]carbamoyl]pyridin-2-yl]-3-piperidyl]acetic acid], which inhibition at 30 µM is on record?
**A.** 93%

**Q.** `CCCSc1nc(N2CCC[C@@H](CC(=O)O)C2)ccc1C(=O)N[C@H]1C2CC3CC1C[C@](OC(F)F)(C3)C2` [Example 179, 2-[(3S)-1-[5-[[(2r,5s)-5-(Difluoromethoxy)-2-adamantyl]carbamoyl]-6-propylsulfanyl-pyridin-2-yl]-3-piperidyl]acetic acid] was tested. Which inhibition at 30 µM did it give?
**A.** 87%

**Q.** Which inhibition at 30 µM does the source give for `CCCSc1nc(N2CC[C@@H](CC(=O)O)C2)ccc1C(=O)N[C@H]1C2CC3CC1C[C@](OC(F)F)(C3)C2` [Example 180, 2-[(3S)-1-[5-[[(2r,5s)-5-(Difluoromethoxy)-2-adamantyl]carbamoyl]-6-propylsulfanyl-pyridin-2-yl]pyrrolidin-3-yl]acetic acid] here?
**A.** 95%

**Q.** Which inhibition at 30 µM does the source give for `CCCOc1nc(N2CCC[C@@H](CC(=O)O)C2)ccc1C(=O)N[C@H]1C2CC3CC1C[C@](OC(F)F)(C3)C2` [Example 181, 2-[(3S)-1-[5-[[(2r,5s)-5-(Difluoromethoxy)-2-adamantyl]carbamoyl]-6-propoxy-pyridin-2-yl]-3-piperidyl]acetic acid] here?
**A.** 93%

**Q.** With `O=C(N[C@H]1C2CC3CC1C[C@](OC(F)F)(C3)C2)c1ccc(N2CC[C@@H](C(=O)O)C2)nc1SC1CCCC1` [Example 182, (3R)-1-[6-cyclopentylsulfanyl-5-[[(2r,5s)-5-(difluoromethoxy)-2-adamantyl]carbamoyl]pyridin-2-yl]pyrrolidine-3-carboxylic acid] as the compound, how does the inhibition at 30 µM read?
**A.** 91%
